Test results from patent US10766873B2, “Zuclopenthixol hydrochloride derivatives and Ebselen derivatives as ErbB2 inhibitors” (Centre National de la Recherche Scientifique (CNRS), priority 2016, dated 2020).
pEC50, pIC50: −log10 of the molar value. Like-named read-outs stand apart in the source and are kept apart here.

What was measured:
[1] = target: T1, FERM/ErbB2 interaction (Ezrin FERM domain / juxtamembrane ErbB2 peptide) (Homo sapiens, UniProt P04626); experiment: AlphaScreen competition assay, FERM/ErbB2 interaction; assay type: binding; settings: for Competition assay FERM-ErbB2 interaction Max inhibition, %: 20 h
T1 construct: made in house
Excerpt: To validate that the Zuclopenthixol hydrochloride (ZU) and its derivatives interact with the juxtamembrane domain of ErbB2, we first analyzed in AlphaScreen® their efficiency to inhibit FERM/ErbB2 interaction in a dose-dependent manner and determined IC50 value. Furthermore, to test the selectivity of those compounds, we tested their ability to disrupt the interaction between the FERM domain and the known ERM binding motif contained in the juxtamembrane region of CD44 as a control.
AlphaScreen® technology was used to assess the interaction between the Ezrin binding motif (EBM) contained in the juxtamembrane portions of ErbB2 or CD44 with the Ezrin FERM domain. For this purpose the Ezrin FERM domain in fusion with Glutathione-S-Transferase (GST) has been coupled to GSH-coated acceptor beads. […] The AlphaScreen® reagents (Glutathione-coated Acceptor beads and streptavidin-coated Donor beads) were obtained from PerkinElmer.
The reaction was performed using white 384-well Optiplates (PerkinElmer, Whalham, Mass., USA) in 20 μl (total reaction volume) in a reaction buffer containing PBS, pH 7.4, 5 mM MgCl2 and 0.02% CHAPS. […] 10 μl of a mix solution containing 20 μg/ml Glutathione-coated Acceptor beads and 20 μg/ml streptavidin-coated Donor beads was then added to the wells and incubation was further proceeded for 40 min or overnight in the dark and at room temperature. Light signal was detected with the EnVision® multilabel plate reader (PerkinElmer). All experiments involving AlphaScreen® beads were performed under subdued lighting.

ErbB2 = ErbB2 (Homo sapiens, UniProt P04626); experiment: ErbB2 phosphorylation in SKBR3 cells, dot blot (4G10); assay type: cell-based; parameters: endogenous in cells; host or cells: SKBR3; settings: for Emax: SK-BR-3, read-out: ErbB2 activation 24 h Max inhibition, %; for effect on ErbB2 phosphorylation/activation (in words): SKBR3
Description: The ability of ZU and EB1 and their derivatives to inhibit ErbB2 activity in cellulo on a commonly used ErbB2-overexpressing breast cancer cell line SKBR3 was analyzed. SKBR3 were treated 24 h with increasing concentrations of the compounds (0.625-80 μM) and ErbB2 phosphorylation was addressed by dot blot analysis using an anti-phosphotyrosine antibody (clone 4G10). Quantifications show the result of two independent experiments.

SKBR3 = experiment: MTT cell proliferation, SKBR3; assay type: cell-based, human; settings: for pEC50: read-out: Cell proliferation at d 3 SKBR3 EC50
Description: (§1) We then analyzed the ability of ZU and EB1 and their derivatives to decrease the ErbB2-dependent cell proliferation.
(§2) SKBR3, BT474, MCF-7, MDA-MB-231 and HBMEC cells were treated with the compounds as indicated, and cell proliferation was determined each day during 3 days using an MTT assay. Non treated cells were included as a negative control.
(§3) A solution of ZU in cis conformation was mixed to a solution of ZU in trans conformation (1:1) to obtain ZU in a 50/50 cis/trans conformation and their respective effects on ErbB2 activation and ErbB2-dependent cell proliferation were analyzed as previously by dot blot analysis using an anti-phosphotyrosine antibody (clone 4G10) and by MTT assays in the ErbB2-overexpressing breast cancer cell line SKBR3, BT474, or HBMEC as a control.

BT474 = experiment: MTT cell proliferation, BT474; assay type: cell-based, human; settings: for pEC50: read-out: Cell proliferation at d 3 BT474 EC50
Description: as §1, §2, §3

HBMEC = experiment: MTT cell proliferation, HBMEC control cells; assay type: cell-based, human; settings: for pEC50: read-out: Cell proliferation at d 3 HBMEC EC50; for EC50: read-out: Cell proliferation at d 3 HBMEC EC50, μM
Description: as §1, §2
The WT, V777L or V842I ErbB2-transfected cells were treated with 5 or 10 μM of ZU and cell proliferation was determined each day during 3 days using an MTT assay. Non transfected cells were included as a negative control.
The WT, V777L or V842I ErbB2-transfected cells were treated with 5 or 10 μM of EB1 and cell proliferation was determined each day during 3 days using an MTT assay. Non transfected cells were included as a negative control.

[2] = Homo sapiens, SK-BR-3, 72 h, day 3
[3] = Homo sapiens, BT-474, 72 h, day 3
[4] = SKBR3, 24 h, read-out: ErbB2 activation 24 h EC50
[5] = SKBR3, 24 h, read-out: IC50 ErbB2 phosphorylation

O=C(O)C1CCN(CCC=C2c3ccccc3Sc3ccccc32)CC1 [ZUf, 1-(3-(9H-thioxanthen-9-ylidene)propyl)piperidine-4-carboxylic acid]
Competition assay FERM-ErbB2 interaction Max inhibition, % [1]: 11% | Emax (ErbB2; SKBR3, 24 h, 0.625-80 μM): 0% | effect on ErbB2 phosphorylation/activation (in words) (ErbB2): no effect

O=c1c2ccccc2sn1-c1ccc(Cl)cc1 [EB3]
effect on SKBR3 proliferation (in words) (SKBR3; 7 μM): did not significantly decreased | pEC50 (SKBR3; [2]): 5.05 | Cell proliferation at d 3 SKBR3 Max inhibition, % (SKBR3; day 3): 63.5% | reduction of BT474 proliferation (BT474; 7 μM, day 2): 30% | pEC50 (BT474; [3]): 5.16 | Cell proliferation at d 3 BT474 Max inhibition, % (BT474; day 3): 82.7% | effect on HBMEC proliferation (in words) (HBMEC; 7 μM): without any effect | pEC50 (HBMEC; Homo sapiens, 72 h, day 3): 2.56 | Cell proliferation at d 3 HBMEC Max inhibition, % (HBMEC; day 3): 75.1% | Emax (ErbB2; SKBR3, 24 h, 0.625-80 μM): 66.4% | pEC50 (ErbB2; [4]): 4.71 | pIC50 (ErbB2; [5]): 4.70 to 4.74

FCCN1CCN(CC/C=C2/c3ccccc3Sc3ccc(C(F)(F)F)cc32)CC1 [ZUd, (Z)-1-(2-fluoroethyl)-4-(3-(2-(trifluoromethyl)-9H-thioxanthen-9-ylidene)propyl) Piperazine]
Competition assay FERM-ErbB2 interaction Max inhibition, % [1]: 54% | reduction of SKBR3 proliferation (SKBR3; 20 μM, day 3): 86% | pEC50 (SKBR3; [2]): 5.17 | Cell proliferation at d 3 SKBR3 Max inhibition, % (SKBR3; day 3): 86.4% | reduction of BT474 proliferation (BT474; 20 μM, day 3): 86% | pEC50 (BT474; [3]): 4.78 | Cell proliferation at d 3 BT474 Max inhibition, % (BT474; day 3): 86% | toxicity on control cells (in words) (HBMEC): non-specific toxic effects | EC50 (HBMEC; Homo sapiens, 72 h): 16.3 µM | inhibition at 20 µM (HBMEC; Homo sapiens, 72 h, 20 μM, day 3): 90% | pEC50 (ErbB2): 4.69 | pIC50 (ErbB2): 4.46 to 5.30 | Emax (ErbB2; SKBR3, 24 h, 0.625-80 μM): 51.4%

O=C(O)C1CCN(CCC=C2c3ccccc3Oc3ccccc32)CC1 [ZUe, 1-(3-(9H-xanthen-9-ylidene)propyl)piperidine-4-carboxylic acid]
Emax (ErbB2; SKBR3, 24 h, 0.625-80 μM): 0% | effect on ErbB2 phosphorylation/activation (in words) (ErbB2): no effect

Cc1ccc(-n2sc3ccccc3c2=O)cc1 [EB2]
effect on SKBR3 proliferation (in words) (SKBR3; 5 μM): did not significantly decreased | pEC50 (SKBR3; [2]): 5.03 | Cell proliferation at d 3 SKBR3 Max inhibition, % (SKBR3; day 3): 34.1% | pEC50 (BT474; [3]): 4.93 | Cell proliferation at d 3 BT474 Max inhibition, % (BT474; day 3): 20% | effect on HBMEC proliferation (in words) (HBMEC; 5 μM): without any effect | pEC50 (HBMEC; Homo sapiens, 72 h, day 3): 4.94 | Cell proliferation at d 3 HBMEC Max inhibition, % (HBMEC; day 3): 29.5% | Emax (ErbB2; SKBR3, 24 h, 0.625-80 μM): 43.8% | pEC50 (ErbB2; [4]): 4.74 | pIC50 (ErbB2; [5]): 4.70 to 4.74

NCCN1CCN(CC/C=C2/c3ccccc3Sc3ccc(C(F)(F)F)cc32)CC1 [ZUc, (Z)-2-(4-(3-(2-(trifluoromethyl)-9H-thioxanthen-9-ylidene)propyl)piperazin-1-yl) Ethanamine]
Competition assay FERM-ErbB2 interaction Max inhibition, % [1]: 45% | pEC50 (SKBR3; [2]): 6.47 | Cell proliferation at d 3 SKBR3 Max inhibition, % (SKBR3; day 3): 78.9% | pEC50 (BT474; [3]): 6.64 | Cell proliferation at d 3 BT474 Max inhibition, % (BT474; day 3): 94.9% | toxicity on control cells (in words) (HBMEC): non-specific toxic effects | EC50 (HBMEC; Homo sapiens, 72 h): 0.14 µM | Cell proliferation at d 3 HBMEC Max inhibition, % (HBMEC; day 3): 68.8% | pEC50 (ErbB2): 5.29 | pIC50 (ErbB2): 4.46 to 5.30 | Emax (ErbB2; SKBR3, 24 h, 0.625-80 μM): 90.8%

CCOC(=O)C1CCN(CCC=C2c3ccccc3Sc3ccccc32)CC1 [ZU4, 9-(3-(4-(ethylacetate)piperidine)propylidene)-thioxanthene]
inhibition of FERM/ErbB2 interaction (in words) [1]: inhibited FERM/ErbB2 interaction in a specific and dose-dependent manner | Competition assay FERM-ErbB2 interaction Max inhibition, % [1]: 36% | Emax (ErbB2; SKBR3, 24 h, 0.625-80 μM): 27.5% | effect on ErbB2 phosphorylation/activation (in words) (ErbB2): lower decrease | pEC50 (ErbB2; [4]): 4.32

9-(3-(4-(2-hydroxyethyl)piperazinyl)propylidene)-thioxanthene [ZU3]
inhibition of FERM/ErbB2 interaction (in words) [1]: inhibited FERM/ErbB2 interaction in a specific and dose-dependent manner | Competition assay FERM-ErbB2 interaction Max inhibition, % [1]: 28% | reduction of SKBR3 proliferation (SKBR3; 20 μM): 30% | Cell proliferation at d 3 SKBR3 Max inhibition, % (SKBR3; day 3): 32.6% | pEC50 (SKBR3; day 3): 4.81 | reduction of BT474 proliferation (BT474; 20 μM): 30% | Cell proliferation at d 3 BT474 Max inhibition, % (BT474; day 3): 31.5% | pEC50 (BT474; day 3): 5.38 | effect on HBMEC proliferation (in words) (HBMEC; 20 μM): without any effect | Cell proliferation at d 3 HBMEC Max inhibition, % (HBMEC; day 3): 0% | ErbB2 activation 24 h Max inhibition, % (ErbB2; SKBR3, 24 h, 0.625-80 μM): 75.12% | pEC50 (ErbB2; [4]): 4.49

CC(=O)OCCN1CCN(CC/C=C2/c3ccccc3Sc3ccc(Cl)cc32)CC1 [ZU5, (Z)-2-(4-(3-(2-chloro-9H-thioxanthen-9-ylidene)propyl)piperazin-1-yl)ethylacetate]
inhibition of FERM/ErbB2 interaction (in words) [1]: inhibited FERM/ErbB2 interaction in a specific and dose-dependent manner | Competition assay FERM-ErbB2 interaction Max inhibition, % [1]: 41% | reduction of SKBR3 proliferation (SKBR3; 1 and 5 μM, day 3): 60% | pEC50 (SKBR3; [2]): 5.46 | Cell proliferation at d 3 SKBR3 Max inhibition, % (SKBR3; day 3): 28.2% | reduction of BT474 proliferation (BT474; 1 and 5 μM, day 3): 33% | pEC50 (BT474; [3]): 4.75 | Cell proliferation at d 3 BT474 Max inhibition, % (BT474; day 3): 30.8% | effect on HBMEC proliferation (in words) (HBMEC; 1 and 5 μM): without any effect | EC50 (HBMEC; Homo sapiens, 72 h): 21.9 µM | Cell proliferation at d 3 HBMEC Max inhibition, % (HBMEC; day 3): 24.5% | Emax (ErbB2; SKBR3, 24 h, 0.625-80 μM): 97.5% | pEC50 (ErbB2; [4]): 4.36 | pIC50 (ErbB2; [5]): 4.46 to 5.30

CN1CCN(CC/C=C2/c3ccccc3Sc3ccc(S(=O)(=O)N(C)C)cc32)CC1 [ZU2]
inhibition of FERM/ErbB2 interaction (in words) [1]: inhibited FERM/ErbB2 interaction in a specific and dose-dependent manner | Competition assay FERM-ErbB2 interaction Max inhibition, % [1]: 16% | Emax (ErbB2; SKBR3, 24 h, 0.625-80 μM): 74.2% | pEC50 (ErbB2; [4]): 4.50 | pIC50 (ErbB2; [5]): 4.46 to 5.30

OCCN1CCN(CC/C=C2\c3ccccc3Sc3ccc(Cl)cc32)CC1 (single isomer, unassigned) [trans isomer]
effect on SKBR3 proliferation (in words) (SKBR3; 10 μM): no significant inhibitory effect | effect on BT474 proliferation (in words) (BT474; 10 μM): no significant inhibitory effect

CCOC(=O)C1CCN(CCC=C2c3ccccc3Oc3ccccc32)CC1 [ZU6, ethyl 1-(3-(9H-xanthen-9-ylidene)propyl)piperidine-4-carboxylate]
Emax (ErbB2; SKBR3, 24 h, 0.625-80 μM): 36.2% | effect on ErbB2 phosphorylation/activation (in words) (ErbB2): lower decrease | pEC50 (ErbB2; [4]): 4.45

CS(=O)(=O)CCNCc1ccc(-c2ccc3ncnc(Nc4ccc(OCc5cccc(F)c5)c(Cl)c4)c3c2)o1 [lapatinib, reference compound]
inhibition of FERM/ErbB2 interaction (in words) [1]: did not inhibit
